Experimental data as given in patent publication US20080108706A1, “Chemical resection of pancreas” (priority 1999, published 2008).

Columns and labels:
[1] = system: human pancreatic cell carcinoma line PANC-1; test: IC50 assays in PANC-1 cells; assay type: cell-based
Procedure: (OH)2DEHSPM was tested in a series of IC50 assays in the human pancreatic cell carcinoma line PANC-1 (doubling time 36 hr.).

[2] = system: acinar-derived cell line AR42J; test: Growth of AR42J cells, IC50 assays; assay type: cell-based
Procedure: (OH)2 DEHSPM was also tested in the acinar-derived cell line AR42J.

[3] = system: native polyamine levels in AR42J cells; test: Polyamine pool analysis in AR42J cells; assay type: cell-based; settings: 5 μm analogue
Procedure: In addition, the effect of (OH)2DEHSPM on the native polyamine levels in this cell line was evaluated.

[4] = system: Pancreatic Ductal Adenocarcinoma #03; test: Evaluation against early stage pancreatic ductal adenocarcinoma #03 in BDF mice; assay type: in vivo
Description: Male BDF mice (12 weeks old, weight approximately 28.9 g) were implanted with the pancreatic ductal cell carcinoma #03 3 days before beginning treatment with (HO)2DEHSPM.

[5] = system: pancreatic native polyamine pools; test: Tissue drug and native polyamine levels (pancreas, liver) in treated dogs; assay type: in vivo, beagles
Description: The two dogs (#490 and 494) were fed a prescription canned and dry dog food and were supplemented with Viokase, a pancreatic enzyme preparation, by mixing three tablets with food or by oral administration immediately before each feeding. The dogs were maintained on this regimen for approximately three weeks. During this time, their weight and blood chemistries were closely monitored. The Viokase supplementation was then stopped and the same parameters were again evaluated. One week after the Viokase administration had ceased, the animals were euthanized and tissues were taken for histology and for the determination of tissue polyamine levels.
As the pancreatic insufficiency side-effect that was observed after the administration of the (R,R)—(HO)2DEHSPM to the beagles may have been related to the (R,R)-chirality of the molecule, the (S,S)-enantiomer was synthesized and was compared in a head-to-head fashion with the (R,R)-enantiomer. To perform this experiment, five male beagles approximately 6-8 months of age were obtained from Harlan Sprague Dawley. There were provided with food and water ad libitum and were allowed to acclimate to their new surroundings for two weeks. The animals were weighed prior to starting drug administration and were weighed once per week during the drug dosing period. A CBC and chemistry panel and a Holter monitor were performed once per week. In addition to the usual tests, additional pancreatic function-specific tests were also performed. These additional evaluations included a fecal trypsin test, examination of the feces for fecal fat and serum trypsin-like immunoreactivity determinations. It was hoped that these signs of pancreatic insufficiency would only appear in the animals given the (R,R)-enantiomer and would not be observed in the dogs that were given the (S,S)-molecule. The pancreatic insufficiency may not become evident until approximately 7-8 weeks post-drug. At the conclusion of the experiment, all of the animals were sacrificed and the histology and tissue polyamine levels were determined.
• 1. Dogs #468 and 500 were given (R,R)—(HO)2DEHSPM subcutaneously twice daily for 13 days. • 2. They were fed Purina Dog Chow ad libitum and given free access to water. • 3. Polyamine levels in the pancreas were also analyzed at several time points post-drug. • 4. At the start of the experiment, dog #468 weighed 14.4 kg and dog #500 weighed 12.8 kg. The latter animal's weight never exceeded 13.2 kg. At the end of the drug dosing period, dog #468 weighed 13.0 kg, a loss of 1.4 kg; dog #500 weighed 13.2 kg, a gain of 0.4 kg. • 5. […] The pancreatic native polyamine pools (most especially SPD) were markedly diminished compared to untreated control tissue: [SPM]control=3,985 μm v. [SPM10-days post-treatment=2,548 μm (64% of control) [SPD]control=2,820 μm v [SPD]10-days post-treatment=721 μm (25.6% of control) • 6. Dog #468 was bright, alert and responsive until day thirteen of drug administration. […] The dog was fed boiled chicken and rice, as well as Nutrical (a caloric supplement) and cat food and was slowly weaned back to regular dog food. Frank and/or occult blood was found in the dog's stool until about 17-days post-drug. • 7. Dog #500 was bright, alert and responsive throughout the experiment. […] However, stool consistency had normalized by one week post-drug. • 8. […] The inability to digest fats was confirmed when this test was repeated and the fatty meal was supplemented with Viokase (a pancreatic enzyme supplement). […] (2.15 mg/kg every 12 hours) for 13 days • Route: subcutaneously • 1. Dogs #440 and 476 were given (S,S)— (HO)2DEHSPM subcutaneously twice daily for 13 days. • […]. They were fed Purina Dog Chow ad libitum and given free access to water. • 3. At the start of the experiment, dog #440 weighed 11.8 kg.
Two animals were also treated with DEHSPM at a dose equimolar to the (HO)2DEHSPM dosage and sacrificed at 1- and 75-days after the final treatment. […]

[6] = group 2, total dosage 240 mg/kg IV
[7] = group 4, total dosage 205 mg/kg IV
[8] = group 6, total dosage 102.5 mg/kg IV

CCNCC[C@@H](O)CNCCCCNC[C@H](O)CCNCC.Cl.Cl.Cl.Cl [(R,R)-(HO)2DEHSPM, N^1,N^14-Diethyl-3(R) 12(R)-dihydroxyhomospermine tetrahydrochloride]
IC50 ([1]; time point 96 hr.): > 100000 nM
IC50 ([1]; time point 144 hr.): 500 nM
IC50 ([1]; time point 240 hr.): 120 nM
IC50 ([2]; treatment period 4 days (= 1.33 doublings)): 90000 nM
IC50 ([2]; treatment period 6 days (= 2 doublings)): 1200 nM
IC50 ([2]; treatment period 12 days (= 4 doublings)): 90 nM
Analogue level [3]: 4748 pmol/million cells
PUT, native polyamine level as % polyamine pools relative to untreated controls [3]: 0%
SPD, native polyamine level as % polyamine pools relative to untreated controls [3]: 21%
SPM, native polyamine level as % polyamine pools relative to untreated controls [3]: 82%
Percent Body Wt. Loss ([4]; group 2, tumor-bearing, IV QD 3, 4, 6-9, 14, 17, 18, total dosage 240 mg/kg): 38%
Drug Deaths (days of death) ([4]; group 2, tumor-bearing, total dosage 240 mg/kg IV): none of the mice died
Comments [4, 6]: Inactive
Median Tumor Burden (mg) on day 18 (range) [4, 6]: 651 (138-1324) mg
Tumor Free on Day [4, 6]: 0/5
T/C % ([4]; group 2, total dosage 240 mg/kg IV, tumor burden vs control): 64%
Percent Body Wt. Loss ([4]; group 4, tumor-bearing, IV QD 3-18, total dosage 205 mg/kg): somewhat less dramatic
Median Tumor Burden (mg) on day 18 (range) [4, 7]: 172 (63-965) mg
T-C [4, 7]: 9 days
Time to 1000 mg days (range) [4, 7]: 26.8 (18-28) days
Tumor Free on Day [4, 7]: 0/5
Log Kill ([4]; group 4, total dosage 205 mg/kg IV, Td = 3.5 days): 0.8
Percent Body Wt. Loss ([4]; group 6, tumor-bearing, IV QD 3-18, total dosage 102.5 mg/kg): no significant weight loss
Comments [4, 8]: Inactive
Median Tumor Burden (mg) on day 18 (range) [4, 8]: 617 (270-748) mg
Tumor Free on Day [4, 8]: 0/5
liver concentration of drug (parent+metabolite) ([5]; 10-days post-drug): 500 μm
pancreatic concentration of drug (parent+metabolite) ([5]; 10-days post-drug): exceeded 1,000 μm
[SPD] in pancreas ([5]; 10-days post-treatment): 721 μm
[SPD] in pancreas, % of control ([5]; 10-days post-treatment): 25.6 % of control
[SPM] in pancreas ([5]; 10-days post-treatment): 2,548 μm
[SPM] in pancreas, % of control ([5]; 10-days post-treatment): 64 % of control
[SPD] in pancreas ([5]; 52-days post-treatment): 156 μm
[SPD] in pancreas, % of control ([5]; 52-days post-treatment): 5.5 % of control
[SPM] in pancreas ([5]; 52-days post-treatment): 860 μm
[SPM] in pancreas, % of control ([5]; 52-days post-treatment): 21.6 % of control
native polyamine levels in pancreas ([5]; 75-, 78-, 88- and 92-days post-treatment): stabilized, but at a much lower level than the control pancreas
drug remaining in pancreas ([5]; 75-, 88- and 92-day post-treatment samples): almost completely washed out
total drug concentration (parent+metabolite) in pancreas ([5]; at necropsy (52-days post-treatment) vs 10-days post-treatment): remained virtually unchanged
